Assay results reported in patent publication US20220306659A1, “COMPOUND INHIBITING AND INDUCING DEGRADATION OF EGFR AND ALK” (BEIJING TIDE PHARMACEUTICAL CO., LTD., priority 2019, published 2022).

Legend:
Assay type in all cases: cell-based
[1] = biological target: Ba/F3(EGFR^Del19/T790M/C797S) cells (Homo sapiens, UniProt P00533, DEL746-750/T790M/C797S, cells depend on it); test: Assay of activity on Ba/F3 cells (CTG, 72 h); settings: read-out: IC50 (nM) Ba/F3 (EGFR^Del19/T790M/C797S)
In short: (§1)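 Ba/F3 cells dependent on each EGFR triple mutant were exposed to 3-fold compound dilutions for 72 h at 37° C, 5% CO2, with CellTiter-Glo luminescence as the read-out.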

[2] = biological target: Ba/F3(EGFR^L858R/T790M/C797S) cells (Homo sapiens, UniProt P00533, T790M/C797S/L858R, cells depend on it); test: Assay of activity on Ba/F3 cells (CTG, 72 h); settings: read-out: IC50 (nM) Ba/F3 (EGFR^L858R/T790M/C797S)
In short: as §1

EGFR^Del19/T790M/C797S = EGFR^Del19/T790M/C797S (Homo sapiens, UniProt P00533, C797S/DEL746-750/T790M); test: Assay of activity of compounds to induce EGFR protein degradation (Alpha counts); parameters: expressed in transfected cells; host or cells: Ba/F3; settings: 24 h
Description: Assay of activity of compounds to induce EGFR^58R/IT790M/C797S and EGFR^Dell9/T790M/C797S protein degradation
In order to further explain the reason why the compounds of the present disclosure have inhibitory activity on Ba/F3(EGFR^58R/IT790M/C797S) and Ba/F3(EGFR^Dell9/T790M/C797S) cells, representative compounds C176 and C213 were selected to study the mechanism of action of the compounds, and observe their effects on EGFR^58R/IT790M/C797S and EGFR^Dell9/T790M/C797S protein levels.
Ba/F3(EGFR^58R/IT790M/C797S) and Ba/F3(EGFR^Dell9/T790M/C797S) cells were cultured according to the culture conditions recommended by ATCC, and analyzed by index.
Complete medium: 1640 medium, 10% FBS, 1× glutamine, 1× penicillin-streptomycin.
Culture conditions: incubated at 37° C., 95% air, 5% CO2 incubator.
(2) Compound stock solution: 10 mM stock solution in DMSO, stored at −20° C.
(3) Preparation of cell suspension:
The cells in the cell culture bottle were collected, and the cells with viability of >90% can be used in the assay. Cells were seeded in a 96-well plate with 40 μL cells, 1*10^5 cells/well.
Compound was diluted 3× with DMSO, starting at 1.0 mM (for EGFR^58R/IT790M/C797S assay) and 5 mM (for EGFR^Dell9/T790M/C797S assay), respectively, into 10 concentrations to prepare working solutions.
(5) Compound was pipetted into the 96-well plate to treat cells in a 37° C., 95% air, 5% CO2 incubator for 24 h.
1) 1 μg/mL of EGF activated cells were treated for 10 min;
2) After the compound treatment, lysis buffer was added to lyse cells; 10 μL of cell lysate was transferred to a 384-well plate; in addition, control lysate and negative control plus 5 μL of acceptor mix were added to the 384-well plate, and shaken on a shaker for 1-2 min;
3) 5 μL of donor mix was added to each well; the 384-well plate was sealed, shaken on a shaker for 1-2 min, left in the dark at room temperature overnight, and read with an enzyme labeling instrument.
Alpha counts were fitted by logarithmic treatment of compound concentration with Graphpad Prism 8.0.
Y=Bottom+(Top−Bottom)/(1+10^((LogIC50−X)*HillSlope))
X: logarithm of compound concentration; Y: Alpha Counts.

Q: For `COc1cc(N2CCC3(CCN(CCCCCOc4cccc5c4CN(C4CCC(=O)NC4=O)C5=O)CC3)CC2)c(C)cc1Nc1ncc(Br)c(Nc2ccc3nccnc3c2P(C)(C)=O)n1` (stereo not shown) [Compound C213, 3-(4-((5-(9-(4-((5-bromo-4-((5-(dimethylphosphoryl)quinoxalin-6-yl)amino)pyrimidin-2-yl)amino)-5-methoxy-2-methylphenyl)-3,9-diazaspiro[5.5]undecan-3-yl)pentyl)oxy)-1-oxoisoindolin-2-yl)piperidine-2,6-dione], which GI50 [1] is on record?
A: 1 to 100 nM

Q: What about the GI50 [2] of the same compound?
A: 1 to 100 nM

Q: And the DC50 (EGFR^Del19/T790M/C797S; Ba/F3(EGFR^Del19/T790M/C797S) cells, 0.1 nM to 10000 nM, FIG. 2, read-out: DC50 of EGFR^Del19/T790M/C797S protein level)?
A: 11.3 nM

Q: And the “effect on EGFR^Del19/T790M/C797S protein level (in words)” value (EGFR^Del19/T790M/C797S; Ba/F3 cells, dose-dependent)?
A: significantly reduces
